The source of these data is PubChem BioAssay (NCI).

Each structure is given as a SMILES string.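 Grown in 96-well plates, cells were treated for 48 hours with each compound at five concentrations. Insufficient inhibition: endpoint recorded as highest concentration tested. TGI marks complete inhibition of growth.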 Where a SMILES comes first, the peptide text is derived from it. [ ]: non-standard residue; d: D form. The star is where a group is joined. ξ: configuration not given here. ξPhe(4-NO2) = NC(Cc1ccc([N+](=O)[O-])cc1)C(=O)O; Boc = CC(C)(C)OC(=O)*; OBn = c1ccc(CO*)cc1

Test systems include A498 renal; ACHN renal; CCRF-CEM leukemia; EKVX NSCLC; HCT-15 colon; HOP-62 NSCLC; HT29 colon; MCF7 breast; MDA-MB-231 breast; MDA-MB-435; MDA-N; NCI-H460 lung; NCI-H522 lung; SK-MEL-28 melanoma; SK-MEL-5 melanoma; SN12C renal; SNB-75 CNS; SR leukemia; T-47D breast; UACC-62 melanoma.
Common to all, as to assay: inhibition of tumour cell growth, NCI panel, 48 h

As for `CC1(C)CCCCCCCCCC(C)(CCCO)C1=O` (stereo not given), the TGI with A498 renal stood at 33.1 µM; in the assay on ACHN renal, 31.7 µM; in the assay on CCRF-CEM leukemia, 92.4 µM; in the assay with EKVX NSCLC, 36.7 µM; with HCT-15 colon, 31.8 µM; in the assay on HOP-62 NSCLC, 30.3 µM. Further, the TGI in the assay with HT29 colon amounted to 26.6 µM; in the assay on MCF7 breast, 31.1 µM; in the assay with MDA-MB-231 breast, 28.7 µM; in the assay with MDA-MB-435 it was 34 µM; in the assay on MDA-N, 30 µM; with NCI-H460 lung, 33.6 µM. Besides, the TGI with NCI-H522 lung was 29.7 µM; in the assay on SK-MEL-28 melanoma, 34.2 µM; with SK-MEL-5 melanoma, 31.3 µM; in the assay with SN12C renal, 32.2 µM; with SNB-75 CNS, 31.9 µM; in the assay on SR leukemia, greater than 100 µM. Moreover, the values for the TGI with T-47D breast and in the assay with UACC-62 melanoma were 29.3 µM and 32.4 µM, respectively.
Take `CS(=O)(=O)c1[nH]nc2[nH]c(=O)[nH]c(=O)c12`: the TGI with A498 renal, in the assay on ACHN renal, in the assay on CCRF-CEM leukemia, in the assay with EKVX NSCLC, in the assay with HCT-15 colon and with HOP-62 NSCLC was greater than 10 µM each time. The TGI in the assay with HT29 colon, in the assay on MCF7 breast, in the assay with MDA-MB-231 breast, with MDA-MB-435, in the assay on MDA-N and in the assay with NCI-H460 lung was greater than 10 µM in each case. Besides, the TGI in the assay on NCI-H522 lung, with SK-MEL-28 melanoma, in the assay on SK-MEL-5 melanoma, with SN12C renal, in the assay with SNB-75 CNS and in the assay with SR leukemia was greater than 10 µM throughout. The TGI with T-47D breast and in the assay with UACC-62 melanoma was greater than 10 µM throughout.
On to `COc1ccc2nc3cc([N+](=O)[O-])ccc3c(NNc3ccc(Cl)cc3)c2c1`, for which the TGI is 0.221 µM with A498 renal; greater than 82.2 µM with ACHN renal; 80.1 µM in the assay on CCRF-CEM leukemia; 99 µM in the assay on EKVX NSCLC; greater than 100 µM in the assay on HCT-15 colon; greater than 78.8 µM in the assay with HOP-62 NSCLC. The TGI in the assay on HT29 colon was 43.5 µM; in the assay with MCF7 breast, greater than 100 µM; in the assay with MDA-MB-231 breast, greater than 73.1 µM; in the assay with MDA-MB-435, greater than 100 µM; with MDA-N, greater than 100 µM; in the assay on NCI-H460 lung, greater than 59 µM. Also, the TGI in the assay on NCI-H522 lung is 83.7 µM; with SK-MEL-28 melanoma it was greater than 100 µM; in the assay on SK-MEL-5 melanoma, 36.2 µM; in the assay on SN12C renal it was 98 µM; in the assay with SNB-75 CNS, greater than 100 µM; with SR leukemia, 37.7 µM. The TGI was greater than 100 µM in the assay with T-47D breast and greater than 65.9 µM in the assay with UACC-62 melanoma.
Take `Cc1cnc2[nH]c(-c3ccc(F)cc3)cc(=O)c2c1`: the TGI in the assay with A498 renal is 81.3 µM; in the assay with ACHN renal it was greater than 100 µM; with CCRF-CEM leukemia, greater than 100 µM; in the assay with EKVX NSCLC it was greater than 100 µM; in the assay with HCT-15 colon it was greater than 100 µM; in the assay on HOP-62 NSCLC, greater than 83.1 µM. Moreover, the TGI was greater than 100 µM with HT29 colon; greater than 100 µM with MCF7 breast; greater than 100 µM in the assay on MDA-MB-231 breast; 12.6 µM with MDA-MB-435; 8.87 µM in the assay on MDA-N; greater than 100 µM in the assay on NCI-H460 lung. Besides, the TGI in the assay on NCI-H522 lung was 50.4 µM; with SK-MEL-28 melanoma, greater than 100 µM; in the assay on SK-MEL-5 melanoma it was greater than 100 µM; with SN12C renal, greater than 100 µM; with SNB-75 CNS it was 62.8 µM; with SR leukemia, greater than 61.5 µM. Further, the TGI in the assay on T-47D breast and in the assay with UACC-62 melanoma was greater than 100 µM in each case.
Turning to `CC(C)(C)OC(=O)NC(Cc1ccc([N+](=O)[O-])cc1)C(=O)NCC(=O)OCc1ccccc1` (stereo not given) (Boc-[ξPhe(4-NO2)]-Gly-OBn), the TGI in the assay with A498 renal is greater than 100 µM; in the assay with ACHN renal, 48.4 µM; in the assay with CCRF-CEM leukemia, 48.8 µM; in the assay with EKVX NSCLC, greater than 100 µM; in the assay with HCT-15 colon, 41.9 µM; with HOP-62 NSCLC, 36.7 µM. Further, the TGI in the assay on HT29 colon was 61.3 µM; with MCF7 breast, greater than 100 µM; in the assay on MDA-MB-231 breast, 80.3 µM; with MDA-MB-435 it was 33.2 µM; in the assay on MDA-N, 39.8 µM; with NCI-H460 lung, 49.4 µM. The TGI in the assay with NCI-H522 lung is 53 µM; with SK-MEL-28 melanoma, 47.3 µM; in the assay on SK-MEL-5 melanoma, 46.2 µM; with SN12C renal it was 45.9 µM; in the assay on SNB-75 CNS, 41.5 µM; in the assay on SR leukemia, greater than 100 µM. In addition, the TGI in the assay on T-47D breast was greater than 100 µM; with UACC-62 melanoma, 32 µM.
